# Where two headings read alike, the source gives them in different places.
# Legend:
# Assay type in all cases: binding
# [1] = target: T1, HeLa cell extract proteins (Homo sapiens, UniProt O75608)
# T1 construct: endogenous in cells; host or cells: HeLa cell extract
# [2] = target: T2, HeLa cell extract proteins (Homo sapiens, UniProt P23284)
# T2 construct: endogenous in cells; host or cells: HeLa cell extract
# [3] = target: T3, HeLa cell extract proteins (Homo sapiens, UniProt P55735)
# T3 construct: endogenous in cells; host or cells: HeLa cell extract
# T3 sequence (P55735 1-322): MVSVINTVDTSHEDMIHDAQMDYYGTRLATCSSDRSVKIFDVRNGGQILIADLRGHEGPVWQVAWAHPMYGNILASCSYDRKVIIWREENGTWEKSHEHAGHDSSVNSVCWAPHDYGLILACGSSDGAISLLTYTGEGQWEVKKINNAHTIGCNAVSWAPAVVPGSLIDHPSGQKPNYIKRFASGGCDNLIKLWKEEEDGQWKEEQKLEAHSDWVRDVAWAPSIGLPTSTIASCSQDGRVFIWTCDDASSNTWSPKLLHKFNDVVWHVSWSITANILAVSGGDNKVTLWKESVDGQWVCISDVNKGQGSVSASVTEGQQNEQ
# [4] = target: T4, HeLa cell extract proteins (Homo sapiens, UniProt Q96CN7)
# T4 construct: endogenous in cells; host or cells: HeLa cell extract
# T4 sequence (Q96CN7 1-298): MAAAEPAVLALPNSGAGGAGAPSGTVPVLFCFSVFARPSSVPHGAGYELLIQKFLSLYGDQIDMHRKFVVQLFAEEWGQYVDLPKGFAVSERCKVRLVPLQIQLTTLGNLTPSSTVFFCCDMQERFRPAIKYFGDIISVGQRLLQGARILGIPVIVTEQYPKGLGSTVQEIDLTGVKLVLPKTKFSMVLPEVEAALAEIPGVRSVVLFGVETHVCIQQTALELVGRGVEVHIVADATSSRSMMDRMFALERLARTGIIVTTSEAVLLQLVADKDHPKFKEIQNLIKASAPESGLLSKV
# [5] = target: T5, HeLa cell extract proteins (Homo sapiens, UniProt Q9Y6D5)
# T5 construct: endogenous in cells; host or cells: HeLa cell extract
# T5 sequence (Q9Y6D5 whole entry): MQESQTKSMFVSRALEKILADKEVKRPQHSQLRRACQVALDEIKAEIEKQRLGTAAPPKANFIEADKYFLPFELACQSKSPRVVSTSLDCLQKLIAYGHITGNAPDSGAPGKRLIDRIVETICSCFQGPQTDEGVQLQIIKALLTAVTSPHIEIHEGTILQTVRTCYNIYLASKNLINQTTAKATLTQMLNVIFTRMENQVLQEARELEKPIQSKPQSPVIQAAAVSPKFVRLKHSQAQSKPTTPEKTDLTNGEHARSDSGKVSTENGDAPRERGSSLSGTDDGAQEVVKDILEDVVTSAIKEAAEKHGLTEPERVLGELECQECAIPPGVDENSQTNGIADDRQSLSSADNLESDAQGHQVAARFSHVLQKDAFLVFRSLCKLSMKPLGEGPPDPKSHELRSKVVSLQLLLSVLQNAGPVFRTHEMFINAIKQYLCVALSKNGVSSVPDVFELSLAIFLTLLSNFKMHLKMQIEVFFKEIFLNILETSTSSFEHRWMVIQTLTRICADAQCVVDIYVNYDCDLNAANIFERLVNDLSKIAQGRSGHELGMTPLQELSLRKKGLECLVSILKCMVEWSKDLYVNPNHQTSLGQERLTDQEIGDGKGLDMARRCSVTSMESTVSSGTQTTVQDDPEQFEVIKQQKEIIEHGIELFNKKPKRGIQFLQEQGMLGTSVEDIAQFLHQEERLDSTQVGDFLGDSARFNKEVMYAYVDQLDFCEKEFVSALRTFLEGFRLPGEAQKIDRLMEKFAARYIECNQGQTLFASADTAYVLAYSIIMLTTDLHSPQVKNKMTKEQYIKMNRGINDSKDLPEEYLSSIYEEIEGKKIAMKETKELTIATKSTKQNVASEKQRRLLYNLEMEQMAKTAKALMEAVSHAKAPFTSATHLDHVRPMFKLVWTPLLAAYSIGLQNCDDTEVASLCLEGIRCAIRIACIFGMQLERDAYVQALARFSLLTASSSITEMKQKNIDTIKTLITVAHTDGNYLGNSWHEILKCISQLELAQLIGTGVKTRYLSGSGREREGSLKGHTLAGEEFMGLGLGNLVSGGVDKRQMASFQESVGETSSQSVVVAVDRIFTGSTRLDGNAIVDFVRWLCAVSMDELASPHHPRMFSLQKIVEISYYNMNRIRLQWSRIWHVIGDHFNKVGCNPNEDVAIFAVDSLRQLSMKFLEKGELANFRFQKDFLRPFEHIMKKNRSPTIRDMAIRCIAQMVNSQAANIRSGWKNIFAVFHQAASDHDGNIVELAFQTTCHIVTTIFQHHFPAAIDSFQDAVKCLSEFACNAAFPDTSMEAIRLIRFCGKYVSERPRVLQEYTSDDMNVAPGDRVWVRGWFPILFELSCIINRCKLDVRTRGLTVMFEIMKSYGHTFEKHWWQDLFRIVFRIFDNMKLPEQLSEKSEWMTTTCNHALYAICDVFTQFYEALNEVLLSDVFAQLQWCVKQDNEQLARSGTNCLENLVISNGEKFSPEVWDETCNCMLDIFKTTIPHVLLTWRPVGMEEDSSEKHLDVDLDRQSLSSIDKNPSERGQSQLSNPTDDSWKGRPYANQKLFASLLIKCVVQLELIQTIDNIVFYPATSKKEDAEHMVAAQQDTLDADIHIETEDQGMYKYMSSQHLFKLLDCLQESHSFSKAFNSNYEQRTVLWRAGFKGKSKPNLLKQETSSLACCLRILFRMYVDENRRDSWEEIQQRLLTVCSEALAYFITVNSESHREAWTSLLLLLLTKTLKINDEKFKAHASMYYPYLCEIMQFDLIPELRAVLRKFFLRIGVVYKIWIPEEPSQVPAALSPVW
# [6] = target: T6, HeLa cell extract proteins (Homo sapiens, UniProt P39019)
# T6 construct: endogenous in cells; host or cells: HeLa cell extract
# [7] = target: T7, HeLa cell extract proteins (Homo sapiens, UniProt P40227)
# T7 construct: endogenous in cells; host or cells: HeLa cell extract
# T7 sequence (P40227 whole entry): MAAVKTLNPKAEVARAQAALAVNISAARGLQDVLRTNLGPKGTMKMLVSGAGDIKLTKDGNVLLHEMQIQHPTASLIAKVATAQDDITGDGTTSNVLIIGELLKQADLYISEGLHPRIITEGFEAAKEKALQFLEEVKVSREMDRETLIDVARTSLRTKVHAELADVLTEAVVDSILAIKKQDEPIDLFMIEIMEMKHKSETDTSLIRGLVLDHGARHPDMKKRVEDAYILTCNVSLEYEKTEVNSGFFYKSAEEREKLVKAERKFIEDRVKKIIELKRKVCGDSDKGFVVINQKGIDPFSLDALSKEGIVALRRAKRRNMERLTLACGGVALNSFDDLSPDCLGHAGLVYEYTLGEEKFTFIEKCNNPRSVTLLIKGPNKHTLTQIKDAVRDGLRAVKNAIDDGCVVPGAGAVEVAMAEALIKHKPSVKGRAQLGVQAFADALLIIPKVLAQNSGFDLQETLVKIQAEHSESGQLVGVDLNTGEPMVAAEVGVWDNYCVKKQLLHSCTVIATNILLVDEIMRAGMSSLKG
# [8] = target: T8, HeLa cell extract proteins (Homo sapiens, UniProt O00410)
# T8 construct: endogenous in cells; host or cells: HeLa cell extract
# T8 sequence (O00410 1-1097): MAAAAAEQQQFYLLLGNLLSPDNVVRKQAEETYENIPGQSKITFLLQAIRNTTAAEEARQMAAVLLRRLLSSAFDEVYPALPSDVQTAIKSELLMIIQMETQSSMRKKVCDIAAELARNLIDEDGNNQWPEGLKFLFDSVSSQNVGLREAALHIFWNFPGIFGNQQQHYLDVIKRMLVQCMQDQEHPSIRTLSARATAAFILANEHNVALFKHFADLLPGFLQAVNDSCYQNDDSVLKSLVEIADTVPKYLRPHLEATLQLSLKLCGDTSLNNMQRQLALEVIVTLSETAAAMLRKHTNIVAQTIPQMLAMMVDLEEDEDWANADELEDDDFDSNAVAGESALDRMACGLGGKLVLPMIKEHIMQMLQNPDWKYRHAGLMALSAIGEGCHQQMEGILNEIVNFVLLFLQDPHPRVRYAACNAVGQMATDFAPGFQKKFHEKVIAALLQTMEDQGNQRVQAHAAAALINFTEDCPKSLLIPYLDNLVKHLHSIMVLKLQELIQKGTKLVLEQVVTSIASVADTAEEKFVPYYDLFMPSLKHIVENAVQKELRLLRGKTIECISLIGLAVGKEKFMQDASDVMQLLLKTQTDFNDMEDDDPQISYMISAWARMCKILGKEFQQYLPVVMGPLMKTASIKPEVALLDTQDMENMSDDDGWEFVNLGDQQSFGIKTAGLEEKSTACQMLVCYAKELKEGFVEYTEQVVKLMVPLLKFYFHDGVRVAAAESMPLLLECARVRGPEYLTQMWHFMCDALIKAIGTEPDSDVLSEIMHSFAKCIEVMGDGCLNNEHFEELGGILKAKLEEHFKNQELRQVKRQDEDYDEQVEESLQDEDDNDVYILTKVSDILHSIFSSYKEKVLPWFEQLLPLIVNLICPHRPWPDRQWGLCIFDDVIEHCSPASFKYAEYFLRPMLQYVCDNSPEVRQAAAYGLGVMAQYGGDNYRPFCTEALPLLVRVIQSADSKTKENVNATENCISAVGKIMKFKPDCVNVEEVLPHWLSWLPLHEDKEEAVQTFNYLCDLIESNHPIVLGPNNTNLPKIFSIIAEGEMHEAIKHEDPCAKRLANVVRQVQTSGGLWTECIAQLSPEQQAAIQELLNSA
# [9] = target: T9, HeLa cell extract proteins (Homo sapiens, UniProt Q969X5)
# T9 construct: endogenous in cells; host or cells: HeLa cell extract
# T9 sequence (Q969X5 1-290): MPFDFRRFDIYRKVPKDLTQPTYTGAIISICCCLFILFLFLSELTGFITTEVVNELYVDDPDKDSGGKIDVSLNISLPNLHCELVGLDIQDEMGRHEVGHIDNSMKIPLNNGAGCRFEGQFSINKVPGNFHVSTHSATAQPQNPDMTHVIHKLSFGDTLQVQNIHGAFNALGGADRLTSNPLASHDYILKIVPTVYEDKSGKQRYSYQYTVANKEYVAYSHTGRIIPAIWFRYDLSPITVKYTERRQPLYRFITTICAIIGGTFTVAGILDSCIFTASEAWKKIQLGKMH
# [10] = target: T10, HeLa cell extract proteins (Homo sapiens, UniProt Q9HBL8)
# T10 construct: endogenous in cells; host or cells: HeLa cell extract
# T10 sequence (Q9HBL8 whole entry): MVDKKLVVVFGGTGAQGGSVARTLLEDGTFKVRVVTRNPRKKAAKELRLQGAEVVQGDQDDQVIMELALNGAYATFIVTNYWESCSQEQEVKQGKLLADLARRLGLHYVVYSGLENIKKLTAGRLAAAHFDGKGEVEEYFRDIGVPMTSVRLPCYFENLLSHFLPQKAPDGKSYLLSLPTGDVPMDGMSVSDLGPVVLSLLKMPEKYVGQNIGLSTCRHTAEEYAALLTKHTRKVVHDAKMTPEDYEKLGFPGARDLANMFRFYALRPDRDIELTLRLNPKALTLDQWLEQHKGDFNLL
# [11] = target: T11, HeLa cell extract proteins (Homo sapiens, UniProt Q15046)
# T11 construct: endogenous in cells; host or cells: HeLa cell extract
# T11 sequence (Q15046 whole entry): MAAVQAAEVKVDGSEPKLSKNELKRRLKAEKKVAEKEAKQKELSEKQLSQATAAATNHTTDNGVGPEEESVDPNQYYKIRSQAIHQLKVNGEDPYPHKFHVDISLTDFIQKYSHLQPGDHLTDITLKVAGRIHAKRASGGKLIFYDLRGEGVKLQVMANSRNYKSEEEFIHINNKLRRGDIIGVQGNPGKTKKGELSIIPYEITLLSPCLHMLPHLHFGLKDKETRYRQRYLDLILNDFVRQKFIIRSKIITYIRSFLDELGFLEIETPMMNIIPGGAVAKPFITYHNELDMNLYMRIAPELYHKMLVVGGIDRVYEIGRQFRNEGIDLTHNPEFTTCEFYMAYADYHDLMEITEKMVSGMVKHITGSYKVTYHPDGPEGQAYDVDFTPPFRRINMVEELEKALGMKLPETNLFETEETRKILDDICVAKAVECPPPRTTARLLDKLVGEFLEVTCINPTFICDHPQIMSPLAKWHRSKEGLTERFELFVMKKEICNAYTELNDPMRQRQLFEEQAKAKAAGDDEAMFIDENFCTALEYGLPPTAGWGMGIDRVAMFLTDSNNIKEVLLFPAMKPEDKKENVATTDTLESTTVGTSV
# [12] = target: T12, HeLa cell extract proteins (Homo sapiens, UniProt Q96DG6)
# T12 construct: endogenous in cells; host or cells: HeLa cell extract
# T12 sequence (Q96DG6 1-245): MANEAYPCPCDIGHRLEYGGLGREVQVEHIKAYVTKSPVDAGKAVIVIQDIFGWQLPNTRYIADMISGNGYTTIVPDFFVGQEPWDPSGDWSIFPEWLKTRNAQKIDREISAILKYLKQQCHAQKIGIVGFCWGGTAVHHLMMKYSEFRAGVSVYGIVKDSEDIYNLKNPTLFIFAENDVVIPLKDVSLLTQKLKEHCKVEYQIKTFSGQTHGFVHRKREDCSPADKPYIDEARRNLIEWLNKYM
# [13] = HeLa, protein RPS19 (40S RIBOSOMAL PROTEIN S19)
# [14] = HeLa, protein PPIB (PEPT[…] B PRECURSOR.)
# T1 sequence (O75608 whole entry): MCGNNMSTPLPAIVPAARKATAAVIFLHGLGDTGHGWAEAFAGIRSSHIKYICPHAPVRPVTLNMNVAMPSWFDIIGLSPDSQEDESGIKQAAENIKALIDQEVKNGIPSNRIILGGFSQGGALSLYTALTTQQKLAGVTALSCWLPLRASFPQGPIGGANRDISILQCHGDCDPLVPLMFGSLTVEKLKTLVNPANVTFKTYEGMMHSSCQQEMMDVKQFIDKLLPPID
# T2 sequence (P23284 34-216): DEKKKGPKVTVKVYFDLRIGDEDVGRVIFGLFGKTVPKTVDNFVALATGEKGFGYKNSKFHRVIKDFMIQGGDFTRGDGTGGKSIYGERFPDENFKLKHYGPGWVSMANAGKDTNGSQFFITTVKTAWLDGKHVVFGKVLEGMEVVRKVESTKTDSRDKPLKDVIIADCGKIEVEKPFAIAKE
Structure (SMILES),"fold changes relative to vehicle control ([1]; HeLa, captured protein LYPLA1)","fold changes relative to vehicle control ([2]; HeLa, captured protein PPIB)","fold changes relative to vehicle control ([3]; HeLa, captured protein SEC13)","fold changes relative to vehicle control ([4]; HeLa, captured protein ISOC1)","fold changes relative to vehicle control ([5]; HeLa, protein ARFGEF2)","fold changes relative to vehicle control [6, 13]","fold changes relative to vehicle control ([7]; HeLa, protein CCT6A)","fold changes relative to vehicle control ([8]; HeLa, protein IPO5)","fold changes relative to vehicle control ([9]; protein ERGIC1, HeLa)","fold changes relative to vehicle control ([10]; protein NMRAL1, HeLa)","fold changes relative to vehicle control ([11]; HeLa, captured protein KARS)","fold changes relative to vehicle control ([12]; HeLa, protein CMBL)","fold changes relative to vehicle control ([1]; HeLa, protein LYPLA1)","fold changes relative to vehicle control [2, 14] [fold]","fold changes relative to vehicle control ([3]; HeLa, protein SEC13)","fold changes relative to vehicle control ([4]; protein ISOC1, HeLa)","fold changes relative to vehicle control ([6]; protein RPS19, HeLa)","fold changes relative to vehicle control ([7]; protein CCT6A, HeLa)","fold changes relative to vehicle control ([8]; protein IPO5, HeLa)","fold changes relative to vehicle control ([9]; captured protein ERGIC1, HeLa)",also measured
"Nc1nc2c(c(=O)[nH]1)N(C=O)C(CNc1ccc(C(=O)N[C@@H](CCC(=O)O)C(=O)O)cc1)CN2 (stereo partly drawn) [LEU, leucovorin]",0.89,1,1.02,1.09,1.01,1.12,1.01,0.93,0.77,1.01,0.91,1.04,–,–,–,–,–,–,–,–,–
NCCCNc1ccc(C(=O)NC(CCC(=O)O)C(=O)O)cc1 (stereo not drawn) [compound 7],0.92,1.22,0.98,1.04,1.17,1.06,1.31,0.94,1.31,1.03,1.07,1.25,–,–,–,–,–,–,–,–,–
CCCCCCOc1cccc(Cc2cnc(N)nc2N)c1 [compound 2],–,–,–,–,1.11,–,–,–,–,–,–,–,1.1,2.04,0.86,1.01,1.19,2.04,1.27,1.02,"fold changes relative to vehicle control ([10]; captured protein NMRAL1, HeLa): 1.05; fold changes relative to vehicle control ([11]; protein KARS, HeLa): 1.12; fold changes relative to vehicle control ([12]; protein CMBL, HeLa): 1.38"
CCCCCCOc1ccc(Cc2cnc(N)nc2N)cc1 [compound 1],–,–,–,–,1.04,–,–,–,–,–,–,–,0.92,1.37,0.93,1.08,0.98,1.39,0.99,0.94,"fold changes relative to vehicle control ([10]; captured protein NMRAL1, HeLa): 0.54; fold changes relative to vehicle control ([11]; protein KARS, HeLa): 0.74; fold changes relative to vehicle control ([12]; protein CMBL, HeLa): 1.08"
Nc1nc2cccc(-c3ccccc3)c2n1Cc1ccc(Cl)c(Cl)c1 [compound 3],–,–,–,–,0.95,–,–,–,–,–,–,–,0.71,1.25,0.95,1.03,1.01,1.04,1.03,1.1,"fold changes relative to vehicle control ([10]; captured protein NMRAL1, HeLa): 0.95; fold changes relative to vehicle control ([11]; protein KARS, HeLa): 1.13; fold changes relative to vehicle control ([12]; protein CMBL, HeLa): 1.17"
NCCOCCOCC(=O)Nc1nc2ncc(CNc3ccc(C(=O)NC(CCC(=O)O)C(=O)O)cc3)nc2c(=O)[nH]1 (stereo not drawn) [compound 6],0.98,1.49,0.86,1.11,1.15,1.1,1.19,0.99,0.86,0.62,1.04,1.03,–,–,–,–,–,–,–,–,–
"Nc1nc2[nH]cc(CCc3ccc(C(=O)N[C@@H](CCC(=O)O)C(=O)O)cc3)c2c(=O)[nH]1 [PTX, pemetrexed]",–,–,–,–,–,–,–,–,–,–,–,–,–,–,–,–,–,–,–,–,fold changes relative to vehicle control [1]: 0.93; fold changes relative to vehicle control [2]: 1.11; fold changes relative to vehicle control [3]: 0.92; fold changes relative to vehicle control [4]: 0.99; fold changes relative to vehicle control [5]: 1.01; fold changes relative to vehicle control [6]: 1.11; fold changes relative to vehicle control [7]: 1.11; fold changes relative to vehicle control [8]: 0.91; fold changes relative to vehicle control [9]: 0.85; fold changes relative to vehicle control [10]: 0.89; fold changes relative to vehicle control [11]: 0.96; fold changes relative to vehicle control [12]: 0.97

# — publication PMC6199744, “Development of Chemical Proteomics for the Folateome and Analysis of the Kinetoplastid Folateome” (ACS Infectious Diseases, 2018)
